These are literature values, as cited in patent US11338055B2, “Wound dressing” (Animal Ethics Pty Ltd, priority 2017, dated 2022).

SMILES strings stand for the structures.

For the data set the following is noted: typically up to about; depending on the method of administration.

On to `CCCCN1CCCCC1C(=O)Nc1c(C)cccc1C` (stereo not shown) [bupivacaine], for which the duration of anaesthesia was 6 to 12 h.
